Molecules are shown by their SMILES.

Beta-3 Adrenergic Receptor, sequence (P13945 whole entry, species assumed): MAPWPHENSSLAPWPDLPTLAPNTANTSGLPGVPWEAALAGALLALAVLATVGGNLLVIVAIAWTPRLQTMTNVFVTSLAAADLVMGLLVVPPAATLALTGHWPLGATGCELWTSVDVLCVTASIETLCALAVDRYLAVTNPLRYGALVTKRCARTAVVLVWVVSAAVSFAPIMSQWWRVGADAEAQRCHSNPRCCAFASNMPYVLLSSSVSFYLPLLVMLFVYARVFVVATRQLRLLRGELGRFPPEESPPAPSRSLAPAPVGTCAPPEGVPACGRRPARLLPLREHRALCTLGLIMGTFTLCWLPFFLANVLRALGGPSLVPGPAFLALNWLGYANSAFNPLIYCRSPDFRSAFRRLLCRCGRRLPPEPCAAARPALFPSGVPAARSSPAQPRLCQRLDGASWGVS

The assay concerns the target Beta-3 Adrenergic Receptor (Homo sapiens (Human), UniProt P13945). The assay is described as follows: Homogeneous Time-Resolved Fluorescence (HTRF) cAMP antagonist assay, IC50 determination. Type of assay: cell-based. The settings on record: CHO-K1 cells stably expressing recombinant receptor, isoproterenol at EC90. In outline: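 In this functional readout, recombinant CHO-K1 cells received compound, then isoproterenol at its EC90. After 1 h at room temperature, cAMP levels were determined by HTRF using an on-plate standard curve, and IC50 values were fitted.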
The term IC50 denotes the concentration that gives 50% inhibition. In the case of `CNS(=O)(=O)c1cccc(OC[C@@H](O)CN[C@@H]2COC3(CCN(S(=O)(=O)c4ccc5ccccc5c4)CC3)C2)c1` [Compound 29, 3—((S)-2-hydroxy-3-((S)-8-(naphthalen-2-ylsulfonyl)-1-oxa-8-azaspiro[4.5]decan-3-ylamino)propoxy)-N-methylbenzenesulfonamide], the IC50 worked out at 4.53 nM.

On to `CNS(=O)(=O)c1cccc(OC[C@@H](O)CNC2COC3(CCN(S(=O)(=O)c4ccc5c(c4)NC(=O)CO5)CC3)C2)c1` (stereo partly drawn) [Compound 126, 3-((2S)-2-hydroxy-3-(8-(3-oxo-3,4-dihydro-2H-benzo[b][1,4]oxazin-6-ylsulfonyl)-1-oxa-8-azaspiro[4.5]decan-3-ylamino)propoxy)-N-methylbenzenesulfonamide], for which the IC50 was 13 nM.

Take `NS(=O)(=O)c1cccc(OC[C@@H](O)CN[C@H]2COC3(CCN(S(=O)(=O)c4ccc5ccccc5c4)CC3)C2)c1` [Compound 560, 3-((S)-2-hydroxy-3-((R)-8-(naphthalen-2-ylsulfonyl)-1-oxa-8-azaspiro[4.5]decan-3-ylamino)propoxy)benzenesulfonamide]: the IC50 is 19.2 nM. The result for `CNS(=O)(=O)c1cccc(OC[C@@H](O)CNC2COC3(CCN(S(=O)(=O)c4cccc(-c5c(C)noc5C)c4)CC3)C2)c1` (stereo partly drawn) [Compound 59, 3-((2S)-3-(8-(3-(3,5-dimethylisoxazol-4-yl)phenylsulfonyl)-1-oxa-8-azaspiro[4.5]decan-3-ylamino)-2-hydroxypropoxy)-N-methylbenzenesulfonamide] reads 14.5 nM; that for `CNS(=O)(=O)c1cccc(OC[C@@H](O)CNC2COC3(CCN(S(=O)(=O)c4ccc(NCCOC)nc4)CC3)C2)c1` (stereo partly drawn) [Compound 426, 3-((2S)-2-hydroxy-3-(8-(6-(2-methoxyethylamino)pyridin-3-ylsulfonyl)-1-oxa-8-azaspiro[4.5]decan-3-ylamino)propoxy)-N-methylbenzenesulfonamide], 98.6 nM; that for `CNS(=O)(=O)c1cccc(OC[C@@H](O)CNC2COC3(CCN(S(=O)(=O)c4cccc(C)c4C)CC3)C2)c1` (stereo partly drawn) [Compound 265, 3-((2S)-3-(8-(2,3-dimethylphenylsulfonyl)-1-oxa-8-azaspiro[4.5]decan-3-ylamino)-2-hydroxypropoxy)-N-methylbenzenesulfonamide], 28.8 nM. The result for `CNS(=O)(=O)c1cccc(OC[C@@H](O)CNC2COC3(CCN(S(=O)(=O)c4cnc5c(c4)N(C)CCO5)CC3)C2)c1` (stereo partly drawn) [Compound 399, 3-((2S)-2-hydroxy-3-(8-(1-methyl-2,3-dihydro-1H-pyrido[2,3-b][1,4]oxazin-7-ylsulfonyl)-1-oxa-8-azaspiro[4.5]decan-3-ylamino)propoxy)-N-methylbenzenesulfonamide] reads 20.2 nM. The result for `CNS(=O)(=O)c1cccc(OC[C@@H](O)CN[C@H]2COC3(CCN(S(=O)(=O)c4cnc5ccc(C)cc5c4O)CC3)C2)c1` [Compound 533, 3-((S)-2-hydroxy-3-((R)-8-(4-hydroxy-6-methylquinolin-3-ylsulfonyl)-1-oxa-8-azaspiro[4.5]decan-3-ylamino)propoxy)-N-methylbenzenesulfonamide] reads 24.4 nM; that for `CNS(=O)(=O)c1cccc(OC[C@@H](O)CNC2COC3(CCN(S(=O)(=O)c4cc(-c5ccc(CN)cc5)ccc4C)CC3)C2)c1` (stereo partly drawn) [Compound 365, 3-((2S)-3-(8-(4′-(aminomethyl)-4-methylbiphenyl-3-ylsulfonyl)-1-oxa-8-azaspiro[4.5]decan-3-ylamino)-2-hydroxypropoxy)-N-methylbenzenesulfonamide], 20.7 nM.

As to `CNS(=O)(=O)c1cccc(OC[C@@H](O)CNC2COC3(CCN(S(=O)(=O)c4cccc(-c5ccc(/C(N)=N/O)cc5)c4)CC3)C2)c1` (stereo partly drawn) [Compound 379, (Z)-N′-hydroxy-3′-(3-((S)-2-hydroxy-3-(3-(N-methylsulfamoyl)phenoxy)propylamino)-1-oxa-8-azaspiro[4.5]decan-8-ylsulfonyl)biphenyl-4-carboximidamide], the IC50 turned out to be 11.1 nM.

In the case of `CNS(=O)(=O)c1cccc(OC[C@@H](O)CNC2COC3(CCN(S(=O)(=O)c4ccc(C(=O)O)cc4)CC3)C2)c1` (stereo partly drawn) [Compound 40, 4-(3-((S)-2-hydroxy-3-(3-(N-methylsulfamoyl)phenoxy)propylamino)-1-oxa-8-azaspiro[4.5]decan-8-ylsulfonyl)benzoic acid], the IC50 came to 577 nM. For the compound `O=S(=O)(NC(CO)CO)c1cccc(OC[C@@H](O)CNC2COC3(CCN(S(=O)(=O)c4ccc5ccccc5c4)CC3)C2)c1` (stereo partly drawn) [Compound 95, N-(1,3-dihydroxypropan-2-yl)-3-((2S)-2-hydroxy-3-(8-(naphthalen-2-ylsulfonyl)-1-oxa-8-azaspiro[4.5]decan-3-ylamino)propoxy)benzenesulfonamide], the IC50 is 159 nM.

As to `CCn1cc(-c2cccc(S(=O)(=O)N3CCC4(CC3)C[C@@H](NC[C@H](O)COc3cccc(S(=O)(=O)NC)c3)CO4)c2)cn1` [Compound 283, 3-((S)-3-((R)-8-(3-(1-ethyl-1H-pyrazol-4-yl)phenylsulfonyl)-1-oxa-8-azaspiro[4.5]decan-3-ylamino)-2-hydroxypropoxy)-N-methylbenzenesulfonamide], the IC50 is 84.6 nM. For `CCn1cc(-c2cccc(S(=O)(=O)N3CCC4(CC3)C[C@H](NC[C@H](O)COc3cccc(S(=O)(=O)NC)c3)CO4)c2)cn1` [Compound 282, 3-((S)-3-((S)-8-(3-(1-ethyl-1H-pyrazol-4-yl)phenylsulfonyl)-1-oxa-8-azaspiro[4.5]decan-3-ylamino)-2-hydroxypropoxy)-N-methylbenzenesulfonamide], the IC50 was found to be 15.5 nM. For `CNS(=O)(=O)c1cccc(OC[C@@H](O)CNC2COC3(CCN(S(=O)(=O)c4ccc(OC)c(F)c4)CC3)C2)c1` (stereo partly drawn) [Compound 195, 3-((2S)-3-(8-(3-fluoro-4-methoxyphenylsulfonyl)-1-oxa-8-azaspiro[4.5]decan-3-ylamino)-2-hydroxypropoxy)-N-methylbenzenesulfonamide] the value was 23.4 nM; for `CNS(=O)(=O)c1cccc(OC[C@@H](O)CN[C@H]2COC3(CCN(S(=O)(=O)c4ccc5ncccc5c4)CC3)C2)c1` [Compound 344, 3-((S)-2-hydroxy-3-((R)-8-(quinolin-6-ylsulfonyl)-1-oxa-8-azaspiro[4.5]decan-3-ylamino)propoxy)-N-methylbenzenesulfonamide], 42.7 nM; for `CNS(=O)(=O)c1cccc(OC[C@@H](O)CNC2COC3(CCN(S(=O)(=O)c4cccnc4)CC3)C2)c1` (stereo partly drawn) [Compound 324, 3-((2S)-2-hydroxy-3-(8-(pyridin-3-ylsulfonyl)-1-oxa-8-azaspiro[4.5]decan-3-ylamino)propoxy)-N-methylbenzenesulfonamide], 78 nM.

As for `CNS(=O)(=O)c1cccc(OC[C@@H](O)CNC2COC3(CCN(S(=O)(=O)c4c(C)nn(C)c4Cl)CC3)C2)c1` (stereo partly drawn) [Compound 163, 3-((2S)-3-(8-(5-chloro-1,3-dimethyl-1H-pyrazol-4-ylsulfonyl)-1-oxa-8-azaspiro[4.5]decan-3-ylamino)-2-hydroxypropoxy)-N-methylbenzenesulfonamide], the IC50 was 64.1 nM. For `CNS(=O)(=O)c1cccc(OC[C@@H](O)CN[C@@H]2COC3(CCN(S(=O)(=O)c4ccc5c(c4)CCCO5)CC3)C2)c1` [Compound 183, 3—((S)-3-((S)-8-(chroman-6-ylsulfonyl)-1-oxa-8-azaspiro[4.5]decan-3-ylamino)-2-hydroxypropoxy)-N-methylbenzenesulfonamide] the value was 16.4 nM.

The record behind these values is US11987588B2, “Modulators of the beta-3 adrenergic receptor useful for the treatment or prevention of heart failure and disorders related thereto” (Arena Pharmaceuticals, Inc., priority 2017, dated 2024).
